Measurements as given in US9255090B2, “Heterocyclyl derivatives and their use as prostaglandin D2 receptor modulators” (Actelion Pharmaceuticals Ltd., priority 2012, dated 2016).

Biological target: hCRTH2 receptor (Homo sapiens (Human), UniProt Q9Y5Y4)
Test: hCRTH2 receptor membranes radioligand (3H-PGD2) displacement assay
Format: binding
Details: 3H-PGD2 radioligand displacement, HEK293-hCRTH2 membranes
In short: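 HEK293-hCRTH2 membranes, 20 μg/well; 3H-PGD2 added at 2.5 nM; binding buffer 50 mM Tris, 10 mM MnCl2, 1 mM EDTA, pH 7.0; 90 min RT; GF/C filtration, scintillation count. Nonspecific binding: PGD2 at […].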

Chain of hCRTH2 receptor (Q9Y5Y4 whole entry): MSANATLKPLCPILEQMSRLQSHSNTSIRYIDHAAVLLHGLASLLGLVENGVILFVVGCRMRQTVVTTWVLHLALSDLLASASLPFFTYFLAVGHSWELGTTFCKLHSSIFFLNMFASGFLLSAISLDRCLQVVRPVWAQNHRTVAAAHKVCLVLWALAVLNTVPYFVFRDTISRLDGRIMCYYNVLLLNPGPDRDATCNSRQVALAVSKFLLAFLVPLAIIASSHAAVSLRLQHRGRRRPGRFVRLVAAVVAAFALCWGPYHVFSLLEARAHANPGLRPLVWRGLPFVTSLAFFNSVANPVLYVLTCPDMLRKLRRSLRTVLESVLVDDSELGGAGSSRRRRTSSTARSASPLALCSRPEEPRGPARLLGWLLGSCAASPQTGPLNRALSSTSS

Compound	IC50
CC(C)Oc1ccc(CC(=O)O)cc1-c1ccc(F)c2c1CN(C(=O)C[C@@H](C)c1ccccc1)CC2 [Example 292, {3-[5-Fluoro-2-((R)-3-phenyl-butyryl)-1,2,3,4-tetrahydro-isoquinolin-8-yl]-4-isopropoxy-phenyl}-acetic acid]	2.5 nM
Cc1cccc(CCC(=O)N2CCc3c(F)ccc(-c4cc(CC(=O)O)ccc4OC(C)C)c3C2)n1 [Example 295, (3-{5-Fluoro-2-[3-(6-methyl-pyridin-2-yl)-propionyl]-1,2,3,4-tetrahydro-isoquinolin-8-yl}-4-isopropoxy-phenyl)-acetic acid]	1.7 nM
CC(C)(CC(=O)N1CCc2c(F)ccc(-c3cc(CC(=O)O)ccc3OCC(F)(F)F)c2C1)c1ccccc1 [Example 300, [3-[5-Fluoro-2-(3-methyl-3-phenyl-butyryl)-1,2,3,4-tetrahydro-isoquinolin-8-yl]-4-(2,2,2-trifluoro-ethoxy)-phenyl]-acetic acid]	14.8 nM
C[C@H](CC(=O)N1CCc2c(F)ccc(-c3cc(CC(=O)O)ccc3OCC(F)(F)F)c2C1)c1ccccc1 [Example 301, [3-[5-Fluoro-2-((R)-3-phenyl-butyryl)-1,2,3,4-tetrahydro-isoquinolin-8-yl]-4-(2,2,2-trifluoro-ethoxy)-phenyl]-acetic acid]	3.6 nM
Cc1cccc(CCC(=O)N2CCc3c(F)ccc(-c4cc(CC(=O)O)ccc4OCC(F)(F)F)c3C2)n1 [Example 304, [3-{5-Fluoro-2-[3-(6-methyl-pyridin-2-yl)-propionyl]-1,2,3,4-tetrahydro-isoquinolin-8-yl}-4-(2,2,2-trifluoro-ethoxy)-phenyl]-acetic acid]	12.6 nM
CCOc1ccc(CC(=O)O)cc1-c1ccc(F)c2c1CN(C(=O)/C=C/c1ccccn1)CC2 [Example 336, {4-Ethoxy-3-[5-fluoro-2-((E)-3-pyridin-2-yl-acryloyl)-1,2,3,4-tetrahydro-isoquinolin-8-yl]-phenyl}-acetic acid]	3.8 nM
CCOc1ccc(CC(=O)O)cc1-c1ccc(F)c2c1CN(C(=O)/C=C/c1ccn(C)n1)CC2 [Example 337, (4-Ethoxy-3-{5-fluoro-2-[(E)-3-(1-methyl-1H-pyrazol-3-yl)-acryloyl]-1,2,3,4-tetrahydro-isoquinolin-8-yl}-phenyl)-acetic acid]	30.4 nM
CCOc1cc(CC(=O)O)ccc1-c1ccc(F)c2c1CN(C(=O)/C=C/c1cnn(C)c1)CC2 [Example 339, (3-Ethoxy-4-{5-fluoro-2-[(E)-3-(1-methyl-1H-pyrazol-4-yl)-acryloyl]-1,2,3,4-tetrahydro-isoquinolin-8-yl}-phenyl)-acetic acid]	12.7 nM
CCOc1ccc(CC(=O)O)cc1-c1ccc(F)c2c1CN(C(=O)/C=C/c1cnn(C)c1)CC2 [Example 341, (4-Ethoxy-3-{5-fluoro-2-[(E)-3-(1-methyl-1H-pyrazol-4-yl)-acryloyl]-1,2,3,4-tetrahydro-isoquinolin-8-yl}-phenyl)-acetic acid]	5.8 nM
C[C@H](CC(=O)N1CCc2c(F)ccc(-c3ccc(CC(=O)O)cc3OCC(F)(F)F)c2C1)c1ccccc1 [Example 347, [4-[5-Fluoro-2-((R)-3-phenyl-butyryl)-1,2,3,4-tetrahydro-isoquinolin-8-yl]-3-(2,2,2-trifluoro-ethoxy)-phenyl]-acetic acid]	1.5 nM
CC(C)Oc1cc(CC(=O)O)ccc1-c1ccc(F)c2c1CN(C(=O)CC(C)(C)c1ccccc1)CC2 [Example 354, {4-[5-Fluoro-2-(3-methyl-3-phenyl-butyryl)-1,2,3,4-tetrahydro-isoquinolin-8-yl]-3-isopropoxy-phenyl}-acetic acid]	4.2 nM
CC(C)Oc1cc(CC(=O)O)ccc1-c1ccc(F)c2c1CN(C(=O)C[C@H](C)c1ccccc1)CC2 [Example 355, {4-[5-Fluoro-2-((S)-3-phenyl-butyryl)-1,2,3,4-tetrahydro-isoquinolin-8-yl]-3-isopropoxy-phenyl}-acetic acid]	10.3 nM
CC(C)Oc1cc(CC(=O)O)ccc1-c1ccc(F)c2c1CN(C(=O)C[C@@H](C)c1ccccc1)CC2 [Example 356, {4-[5-Fluoro-2-((R)-3-phenyl-butyryl)-1,2,3,4-tetrahydro-isoquinolin-8-yl]-3-isopropoxy-phenyl}-acetic acid]	2.1 nM
CC(C)Oc1cc(CC(=O)O)ccc1-c1ccc(F)c2c1CN(C(=O)[C@@H]1C[C@H]1c1ccccc1)CC2 [Example 357, {4-[5-Fluoro-2-((1R,2R)-2-phenyl-cyclopropanecarbonyl)-1,2,3,4-tetrahydro-isoquinolin-8-yl]-3-isopropoxy-phenyl}-acetic acid]	1.6 nM
CCOc1ccc(CC(=O)O)cc1-c1ccc(F)c2c1CN(C(=O)O[C@H](C)c1ccccc1)CC2 [Example 364, 8-(5-Carboxymethyl-2-ethoxy-phenyl)-5-fluoro-3,4-dihydro-1H-isoquinoline-2-carboxylic acid (R)-1-phenyl-ethyl ester]	6 nM
CCOc1ccc(CC(=O)O)cc1-c1ccc(F)c2c1CN(C(=O)OCc1ccnn1C)CC2 [Example 367, 8-(5-Carboxymethyl-2-ethoxy-phenyl)-5-fluoro-3,4-dihydro-1H-isoquinoline-2-carboxylic acid 2-methyl-2H-pyrazol-3-ylmethyl ester]	8.8 nM
CCOc1ccc(CC(=O)O)cc1-c1ccc(F)c2c1CN(C(=O)OCC=C(C)C)CC2 [Example 375, 8-(5-Carboxymethyl-2-ethoxy-phenyl)-5-fluoro-3,4-dihydro-1H-isoquinoline-2-carboxylic acid 3-methyl-but-2-enyl ester]	8.7 nM
CCOc1ccc(CC(=O)O)cc1-c1ccc(F)c2c1CN(C(=O)OCCOC)CC2 [Example 378, 8-(5-Carboxymethyl-2-ethoxy-phenyl)-5-fluoro-3,4-dihydro-1H-isoquinoline-2-carboxylic acid 2-methoxy-ethyl ester]	5.9 nM
C=C(C)CCOC(=O)N1CCc2c(F)ccc(-c3cc(CC(=O)O)ccc3OCC)c2C1 [Example 379, 8-(5-Carboxymethyl-2-ethoxy-phenyl)-5-fluoro-3,4-dihydro-1H-isoquinoline-2-carboxylic acid 3-methyl-but-3-enyl ester]	2.5 nM
C#CCCOC(=O)N1CCc2c(F)ccc(-c3cc(CC(=O)O)ccc3OCC)c2C1 [Example 381, 8-(5-Carboxymethyl-2-ethoxy-phenyl)-5-fluoro-3,4-dihydro-1H-isoquinoline-2-carboxylic acid but-3-ynyl ester]	28.8 nM
CCOc1ccc(CC(=O)O)cc1-c1ccc(F)c2c1CN(C(=O)OCCC(C)(C)O)CC2 [Example 382, 8-(5-Carboxymethyl-2-ethoxy-phenyl)-5-fluoro-3,4-dihydro-1H-isoquinoline-2-carboxylic acid 3-hydroxy-3-methyl-butyl ester]	14 nM

Further lines, results first:

IC50	Compound
32.3 nM	CCOc1ccc(CC(=O)O)cc1-c1ccc(F)c2c1CN(C(=O)CCc1ncccc1OC)CC2 [Example 309, (4-Ethoxy-3-{5-fluoro-2-[3-(3-methoxy-pyridin-2-yl)-propionyl]-1,2,3,4-tetrahydro-isoquinolin-8-yl}-phenyl)-acetic acid]
3.9 nM	CCOc1ccc(CC(=O)O)cc1-c1ccc(F)c2c1CN(C(=O)CCc1cccc(F)c1)CC2 [Example 311, (4-Ethoxy-3-{5-fluoro-2-[3-(3-fluoro-phenyl)-propionyl]-1,2,3,4-tetrahydro-isoquinolin-8-yl}-phenyl)-acetic acid]
4.8 nM	CCOc1ccc(CC(=O)O)cc1-c1ccc(F)c2c1CN(C(=O)CCc1ccccc1F)CC2 [Example 312, (4-Ethoxy-3-{5-fluoro-2-[3-(2-fluoro-phenyl)-propionyl]-1,2,3,4-tetrahydro-isoquinolin-8-yl}-phenyl)-acetic acid]
46.1 nM	CCOc1cc(CC(=O)O)ccc1-c1ccc(F)c2c1CN(C(=O)CCc1ncccc1OC)CC2 [Example 314, (3-Ethoxy-4-{5-fluoro-2-[3-(3-methoxy-pyridin-2-yl)-propionyl]-1,2,3,4-tetrahydro-isoquinolin-8-yl}-phenyl)-acetic acid]
5.1 nM	CCOc1cc(CC(=O)O)ccc1-c1ccc(F)c2c1CN(C(=O)CCc1ccc(F)cc1)CC2 [Example 315, (3-Ethoxy-4-{5-fluoro-2-[3-(4-fluoro-phenyl)-propionyl]-1,2,3,4-tetrahydro-isoquinolin-8-yl}-phenyl)-acetic acid]
2.1 nM	CCOc1cc(CC(=O)O)ccc1-c1ccc(F)c2c1CN(C(=O)CCc1cccc(F)c1)CC2 [Example 316, (3-Ethoxy-4-{5-fluoro-2-[3-(3-fluoro-phenyl)-propionyl]-1,2,3,4-tetrahydro-isoquinolin-8-yl}-phenyl)-acetic acid]
1.7 nM	CCOc1cc(CC(=O)O)ccc1-c1ccc(F)c2c1CN(C(=O)CCc1ccccc1F)CC2 [Example 317, (3-Ethoxy-4-{5-fluoro-2-[3-(2-fluoro-phenyl)-propionyl]-1,2,3,4-tetrahydro-isoquinolin-8-yl}-phenyl)-acetic acid]
2.3 nM	CCOc1cc(CC(=O)O)ccc1-c1ccc(F)c2c1CN(C(=O)/C=C/c1ccccn1)CC2 [Example 338, {3-Ethoxy-4-[5-fluoro-2-((E)-3-pyridin-2-yl-acryloyl)-1,2,3,4-tetrahydro-isoquinolin-8-yl]-phenyl}-acetic acid]
897 nM	CCOc1ccc(CC(=O)O)cc1-c1ccc(F)c2c1CN(C(=O)Cc1ccccn1)CC2 [Example 340, {4-Ethoxy-3-[5-fluoro-2-(2-pyridin-2-yl-acetyl)-1,2,3,4-tetrahydro-isoquinolin-8-yl]-phenyl}-acetic acid]
150 nM	CCOc1cc(CC(=O)O)ccc1-c1ccc(F)c2c1CN(C(=O)Cc1ccccn1)CC2 [Example 342, {3-Ethoxy-4-[5-fluoro-2-(2-pyridin-2-yl-acetyl)-1,2,3,4-tetrahydro-isoquinolin-8-yl]-phenyl}-acetic acid]
0.5 nM	CCOc1cc(CC(=O)O)ccc1-c1ccc(F)c2c1CN(C(=O)CCc1ccccn1)CC2 [Example 349, {3-Ethoxy-4-[5-fluoro-2-(3-pyridin-2-yl-propionyl)-1,2,3,4-tetrahydro-isoquinolin-8-yl]-phenyl}-acetic acid]
